Data set [1] concerns Human immunodeficiency virus 1. The data set can be described thus: Antiviral activity against HIV1 HXB2 infected in human HeLaP4-2 cells assessed as inhibition of single-cycle viral replication. Particulars: Human immunodeficiency virus 1, HXB2, HeLaP4-2. It counts as functional, organism-based.
Data set [2] in a line: Therapeutic index, ratio of CC50 for human HeLaP4-2 cells to IC50 for HIV1 HXB2 infected in human HeLaP4-2 cells. It counts as cell-based. The following applies: HeLaP4-2 cells infected with HIV1 HXB2, read-out: Ratio CC50/IC50.
A short description of data set [3]: Inhibition of HIV1 reverse transcriptase D443N mutant RNA-dependent DNA plymerase activity. On the set-up: species or system Human immunodeficiency virus 1.
Data set [4] in a line: Cytotoxicity against human HeLaP4-2 cells by alamar blue assay. It counts as cell-based. A general note: Resazurin is reduced to fluorescent resorufin, in cell work by metabolically active cells.
Data set [5] has as its target Human immunodeficiency virus type 1 reverse transcriptase (Human immunodeficiency virus 1, UniProt Q72547). As to the kind of experiment: Inhibition of wild type HIV1 reverse transcriptase RNasH activity.
For data set [6], the target named is Human immunodeficiency virus type 1 integrase (Human immunodeficiency virus 1, UniProt Q7ZJM1). As to the kind of experiment: Inhibition of HIV1 integrase strand transfer activity.
Chain of Human immunodeficiency virus type 1 integrase (Q7ZJM1 whole entry): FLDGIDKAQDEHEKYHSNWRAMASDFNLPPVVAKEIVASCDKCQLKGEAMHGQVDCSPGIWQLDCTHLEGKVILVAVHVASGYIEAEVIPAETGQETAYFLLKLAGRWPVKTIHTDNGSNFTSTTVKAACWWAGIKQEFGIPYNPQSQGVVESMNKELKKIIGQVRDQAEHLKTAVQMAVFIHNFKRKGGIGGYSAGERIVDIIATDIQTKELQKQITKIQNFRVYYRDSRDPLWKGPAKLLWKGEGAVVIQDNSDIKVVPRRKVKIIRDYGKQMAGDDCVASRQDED
The nature of data set [7]: Cytotoxicity against human HeLaP4-2 cells up to 50 uM by alamar blue assay. In kind it is cell-based.
Data set [8] is described as follows: Lipophilicity, log P of the compound. In kind it is physicochemical. Particulars: octanol/water.
The subject of a further data set is MT4. The data set can be described thus: Cytotoxicity against human MT4 cells at 1.5 uM. It counts as cell-based. The following applies: mt4, 1.5 µM.
For data set [9], the system named is Human immunodeficiency virus 1. As to the kind of experiment: Selectivity ratio of IC50 for HIV1 integrase Q148R mutant strand transfer activity to IC50 for HIV1 integrase strand transfer activity.
The subject of data set [10] is Human immunodeficiency virus 1. The data set can be described thus: Selectivity ratio of IC50 for HIV1 integrase N155H mutant strand transfer activity to IC50 for HIV1 integrase strand transfer activity.
Data set [11] relates to Human immunodeficiency virus 1. As to the kind of experiment: Selectivity ratio of IC50 for HIV1 integrase Y143R mutant strand transfer activity to IC50 for HIV1 integrase strand transfer activity.
The subject of data set [12] is Human immunodeficiency virus 1. As to the kind of experiment: Antiviral activity against HIV1 3B infected in human MT4 cells assessed as decrease in viral p24 antigen level after 14 to 21 days. The following applies: Human immunodeficiency virus 1, 3B. In kind it is functional.
In data set [13] the test system is Human immunodeficiency virus 1. The data set can be described thus: Selectivity ratio of IC50 for HIV1 reverse transcriptase D443N mutant RNA-dependent DNA plymerase activity to IC50 for wild type HIV1 reverse transcriptase RNasH activity.
Data set [14] relates to Human immunodeficiency virus 1. The data set can be described thus: Selectivity ratio of IC50 for HIV1 integrase strand transfer activity to IC50 for wild type HIV1 reverse transcriptase RNasH activity.

The values that follow come from ChEMBL document CHEMBL1268904, “Potent and selective HIV-1 ribonuclease H inhibitors based on a 1-hydroxy-1,8-naphthyridin-2(1H)-one scaffold” (Bioorg Med Chem Lett, 2010).

The term IC50 denotes the concentration at which inhibition is half-maximal. The term CC50 denotes the concentration that lowers cell viability or growth by half. Low values mean harm at low concentration, high ones better tolerance by the cells. `NCc1cccc(-c2cccc(-c3cc(=O)n(O)c4ncccc34)c2)c1`: the IC50 in data set [1] worked out at 0.85 µM; in data set [3], 5.1 µM; in data set [5] it was 0.15 µM; in data set [6], 9.1 µM. Besides, the selectivity ratio in [2] turned out to be 3. Also, in [4], half-maximal cytotoxicity (CC50) was put at 4.9 µM.
On to `NCc1ccc(-c2cccc(Cc3cc(=O)n(O)c4ncccc34)c2)cc1`, for which the IC50 came to 0.43 µM in [1], 11 µM in data set [3], 0.1 µM in data set [5] and 8.1 µM in data set [6]. For the same compound, in [2], the selectivity ratio stood at 11. In data set [4], the CC50 was 4.6 µM.
With `NCc1ccc(-c2cccc(-c3cc(=O)n(O)c4ncccc34)c2)cc1`, the IC50 in data set [1] stood at 0.62 µM; in data set [3] it was 16 µM; in data set [5], 0.13 µM; in [6] it was 7.8 µM. Besides, in [2], the selectivity ratio stood at 3. In data set [4], this compound displayed a CC50 of 2.3 µM.
For orientation: logP means a log measure of how a compound divides between an organic and an aqueous phase. Low readings indicate lower lipophilicity, high ones higher lipophilicity. As to `CCOC(=O)c1c(O)c2cccnc2n(O)c1=O`, the IC50 in [1] was found to be 2.5 µM; in data set [5] it was 0.11 µM. For the same compound, in data set [7], the Activity entry is “Non-toxic”. This compound also showed a logP in [8] of 2.2.
The term IC95 denotes the point of the concentration-response curve where the effect stands at 95%. For `NCc1ccc(-c2ccc(Cc3cc(=O)n(O)c4ncccc34)cc2)cc1`, the Activity entry with MT4 was “Non-toxic”. For the same compound, the IC50 was 0.19 µM in data set [1], 13 µM in data set [3], 0.045 µM in [5] and 24 µM in data set [6]. Also, in data set [2], the selectivity ratio turned out to be 17. Moreover, the Ratio IC50 in data set [9] was 1.9; in data set [10], 1.1; in [11] it was 0.84. For the same compound, the CC50 in data set [4] was 3.3 µM. Also, in data set [8], the logP came to 0.15. Also, the IC95 in data set [12] was determined as 0.92 µM.
As for `NCc1ccccc1-c1cccc(-c2cc(=O)n(O)c3ncccc23)c1`, the IC50 turned out to be 2.8 µM in [1], 36 µM in data set [3], 0.67 µM in [5] and 18 µM in [6]. In addition, in [2], the selectivity ratio was found to be 3. Besides, in data set [4], the CC50 turned out to be 9.1 µM.
With `O=c1ccc2cccnc2n1O`, the IC50 is 4.5 µM in data set [1], greater than 50 µM in data set [3], 1.4 µM in [5] and 15 µM in [6]. The selectivity ratio in data set [2] is 4. This compound also gave a CC50 in [4] of 20 µM. Further, the Ratio IC50 in [13] stood at 30; in [14], 10.
As for `O=c1cc(-c2cccc(-c3ccccc3)c2)c2cccnc2n1O`, the IC50 was 34 µM in data set [1], 9 µM in data set [3], 0.64 µM in [5] and 2.4 µM in data set [6]. In [4], this compound had a CC50 greater than 50 µM.
